From patent US4526989A, “1,4-Bis (substituted-amino)-5,8-dihydroxy-anthraquinones and leuco bases thereof” (priority 1979, dated 1985)
Read-outs that look alike come from different tables or passages of the source.

Tests used:
[1] = system: melanotic melanoma B16; assay: Melanotic Melanoma B16 test; format: in vivo, C57BC/6 mice
Protocol: The animals used are C57BC/6 mice, all of the same sex, weighing a minimum of 17 g. and all within a 3-g. weight range. There are normally 10 animals per test group. A one-gram portion of melanotic melanoma B16 tumor is homogenized in 10 ml. of cold balanced salt solution and a 0.5-ml. aliquot of the homogenate is implanted intraperitoneally into each of the test mice. The test compounds are administered intraperitoneally on days one through 9 (relative to tumor inoculation) at various doses. The animals are weighed and survivors are recorded on a regular basis for 60 days. The median survival time and the ratio of survival time for treated (T)/control (C) animals are calculated. […] The criterion for efficacy is T/C×100≥125%.

[2] = system: lymphocytic leukemia P388; assay: Lymphocytic leukemia P388 test (intraperitoneal administration); format: in vivo, DBA/2 mice
Protocol: The animals used are DBA/2 mice all of one sex, weighing a minimum of 17 g. and all within a 3 gram weight range. There are 5 or 6 animals per test group. The tumor transplant is by intraperitoneal injection of 0.1 ml. of dilute ascitic fluid containing 10^6 cells of lymphocytic leukemia P388. The test compounds are administered intraperitoneally on days one, 5 and 9 (relative to tumor inoculation) at various doses. The animals are weighed and survivors are recorded on a regular basis for 30 days. The median survival time and the ratio of survival time for treated (T)/control (C) animals are calculated.

[3] = 6 mg./kg. i.p., days 1 through 9
[4] = 12 mg./kg. i.p., days 1 through 9
[5] = 25 mg./kg. i.p., days 1 through 9
[6] = Mus musculus, ip, 6 mg./kg. i.p., days 1 through 9, efficacy ≥125%, read-out: T/C × 100
[7] = Mus musculus, ip, 12 mg./kg. i.p., days 1 through 9, efficacy ≥125%, read-out: T/C × 100
[8] = Mus musculus, ip, 25 mg./kg. i.p., days 1 through 9, efficacy ≥125%, read-out: T/C × 100
[9] = 25 mg./kg. i.p., days 1, 5 and 9
[10] = 50 mg./kg. i.p., days 1, 5 and 9
[11] = 100 mg./kg. i.p., days 1, 5 and 9
[12] = Mus musculus, P388, ip, 25 mg./kg. i.p., days 1, 5 and 9, efficacy ≥125%, read-out: T/C × 100
[13] = Mus musculus, P388, ip, 50 mg./kg. i.p., days 1, 5 and 9, efficacy ≥125%, read-out: T/C × 100
[14] = Mus musculus, P388, ip, 100 mg./kg. i.p., days 1, 5 and 9, efficacy ≥125%, read-out: T/C × 100
[15] = Mus musculus, P388, ip, read-out: T/C × 100

O=C1c2c(O)ccc(O)c2C(=O)c2c(NCCN3CCCC3)ccc(NCCN3CCCC3)c21 [1,4-Bis[2-(1-pyrrolidinyl)ethylamino]-5,8-dihydroxyanthraquinone]
Median Survival Time [1, 3]: 22.0 days | Median Survival Time [1, 4]: 22.0 days | Median Survival Time [1, 5]: 24.5 days | response vs control in vivo at 6 mg/kg [1, 6]: 137% | response vs control in vivo at 12 mg/kg [1, 7]: 137% | response vs control in vivo at 25 mg/kg [1, 8]: 153% | Median Survival Time ([2]; 12 mg./kg. i.p., days 1, 5 and 9): 18.0 days | Median Survival Time [2, 9]: 21.0 days | Median Survival Time [2, 10]: 23.0 days | Median Survival Time [2, 11]: 24.0 days | response vs control in vivo at 12 mg/kg ([2]; Mus musculus, P388, ip, 12 mg./kg. i.p., days 1, 5 and 9, efficacy ≥125%, read-out: T/C × 100): 164% | response vs control in vivo at 25 mg/kg [2, 12]: 191% | response vs control in vivo at 50 mg/kg [2, 13]: 209% | response vs control in vivo at 100 mg/kg [2, 14]: 218%

NCCNCCNc1ccc(NCCNCCN)c2c1C(=O)c1c(O)ccc(O)c1C2=O [1,4-Bis[2-(2-aminoethylamino)ethylamino]-5,8-dihydroxyanthraquinone]
Median Survival Time [1, 3]: 20.0 days | Median Survival Time [1, 4]: 22.0 days | Median Survival Time [1, 5]: 22.5 days | Median Survival Time ([1]; 50 mg./kg. i.p., days 1 through 9): 24.0 days | response vs control in vivo at 6 mg/kg [1, 6]: 125% | response vs control in vivo at 12 mg/kg [1, 7]: 138% | response vs control in vivo at 25 mg/kg [1, 8]: 141% | response vs control in vivo at 50 mg/kg ([1]; Mus musculus, ip, 50 mg./kg. i.p., days 1 through 9, efficacy ≥125%, read-out: T/C × 100): 150% | Median Survival Time [2, 9]: 13.0 days | Median Survival Time [2, 10]: 14.0 days | Median Survival Time [2, 11]: 16.0 days | Median Survival Time ([2]; 200 mg./kg. i.p., days 1, 5 and 9): 17.0 days | response vs control in vivo at 25 mg/kg [2, 12]: 124% | response vs control in vivo at 50 mg/kg [2, 13]: 133% | response vs control in vivo at 100 mg/kg [2, 14]: 152% | response vs control in vivo at 200 mg/kg ([2]; Mus musculus, P388, ip, 200 mg./kg. i.p., days 1, 5 and 9, efficacy ≥125%, read-out: T/C × 100): 162%

Cl.Cl.O=C1c2c(O)ccc(O)c2C(=O)c2c(NCCNCCO)ccc(NCCNCCO)c21 [1,4-Bis[2-(2-hydroxyethylamino)ethylamino]-5,8-dihydroxyanthraquinone Dihydrochloride]
Median Survival Time ([1]; 0.3 mg./kg. i.p., days 1 through 9): 34.0 days | Median Survival Time ([1]; 0.7 mg./kg. i.p., days 1 through 9): > 34.0 days | Median Survival Time ([1]; 1.5 mg./kg. i.p., days 1 through 9): > 34.0 days | Median Survival Time ([1]; 3 mg./kg. i.p., days 1 through 9): > 28.5 days | Median Survival Time [1, 3]: 15.0 days | Median Survival Time [1, 4]: 11.0 days | response vs control in vivo at 6 mg/kg ([1]; Mus musculus, ip, read-out: T/C × 100): 100% | response vs control in vivo at 0.3 mg/kg ([1]; Mus musculus, ip, 0.3 mg./kg. i.p., days 1 through 9, efficacy ≥125%, read-out: T/C × 100): 227% | response vs control in vivo at 0.7 mg/kg ([1]; Mus musculus, ip, 0.7 mg./kg. i.p., days 1 through 9, efficacy ≥125%, read-out: T/C × 100): > 227% | response vs control in vivo at 1.5 mg/kg ([1]; Mus musculus, ip, 1.5 mg./kg. i.p., days 1 through 9, efficacy ≥125%, read-out: T/C × 100): > 227% | response vs control in vivo at 3 mg/kg ([1]; Mus musculus, ip, 3 mg./kg. i.p., days 1 through 9, efficacy ≥125%, read-out: T/C × 100): > 190% | response vs control in vivo at 12 mg/kg [1, 7]: 73% | Median Survival Time ([2]; 0.04 mg./kg. i.p., days 1, 5 and 9): 20.0 days | Median Survival Time ([2]; 0.09 mg./kg. i.p., days 1, 5 and 9): 21.0 days | Median Survival Time ([2]; 0.19 mg./kg. i.p., days 1, 5 and 9): 25.0 days | Median Survival Time ([2]; 0.39 mg./kg. i.p., days 1, 5 and 9): 27.0 days | Median Survival Time ([2]; 0.78 mg./kg. i.p., days 1, 5 and 9): > 29.0 days | Median Survival Time ([2]; 1.5 mg./kg. i.p., days 1, 5 and 9): > 29.0 days | Median Survival Time ([2]; 3.1 mg./kg. i.p., days 1, 5 and 9): 22.0 days | Median Survival Time ([2]; 6.2 mg./kg. i.p., days 1, 5 and 9): 20.0 days | Median Survival Time ([2]; 12.5 mg./kg. i.p., days 1, 5 and 9): 13.0 days | response vs control in vivo at 0.04 mg/kg [2, 15]: 200% | response vs control in vivo at 0.19 mg/kg [2, 15]: 250% | response vs control in vivo at 6.2 mg/kg [2, 15]: 200% | response vs control in vivo at 0.09 mg/kg ([2]; Mus musculus, P388, ip, 0.09 mg./kg. i.p., days 1, 5 and 9, efficacy ≥125%, read-out: T/C × 100): 210% | response vs control in vivo at 0.39 mg/kg ([2]; Mus musculus, P388, ip, 0.39 mg./kg. i.p., days 1, 5 and 9, efficacy ≥125%, read-out: T/C × 100): 270% | response vs control in vivo at 0.78 mg/kg ([2]; Mus musculus, P388, ip, 0.78 mg./kg. i.p., days 1, 5 and 9, efficacy ≥125%, read-out: T/C × 100): > 290% | response vs control in vivo at 1.5 mg/kg ([2]; Mus musculus, P388, ip, 1.5 mg./kg. i.p., days 1, 5 and 9, efficacy ≥125%, read-out: T/C × 100): > 290% | response vs control in vivo at 3.1 mg/kg ([2]; Mus musculus, P388, ip, 3.1 mg./kg. i.p., days 1, 5 and 9, efficacy ≥125%, read-out: T/C × 100): 220% | response vs control in vivo at 12.5 mg/kg ([2]; Mus musculus, P388, ip, 12.5 mg./kg. i.p., days 1, 5 and 9, efficacy ≥125%, read-out: T/C × 100): 130%
